Results on two molecules are retold here after US9616037B2, “Aryl-phenyl-sulfonamido-cycloalkyl compounds and their use” (PIMCO 2664 Limited, priority 2008, dated 2017).

Values after ≈ are worked out from the molar mass of the structure shown.

Data set [1] can be described thus: In vivo pharmacokinetics study, oral and intravenous dosing. The note with it: rat, 1 mg/kg; for half-life / bioavailability: male, Sprague-Dawley, plasma; for bioavailability: oral. The method, then:
Absorption and metabolic stability were studied using an in vivo pharmacokinetics assay. Drug levels were assessed using ultra-performance LC/TOF-MS.
Three male Sprague-Dawley rats, 200-300 g, were dosed per route. Test compound was administered either orally or intravenously (dose level of 1 mg/kg body weight). Test compound was formulated in 50:50 tetraethylene glycol:PBS for both routes. Animals were given free access to food throughout the study. On the day prior to dosing, the carotid artery was cannulated for sample collection and for the intravenous study the jugular vein was cannulated to enable dosing.
Blood samples were taken from the carotid artery at the following time points and placed in heparinised tubes: • Oral dosing—predose, 0.25, 0.5, 1, 2, 4, 8 and 24 hours post dose. • IV dosing—predose, 0.08, 0.25, 0.5, 1, 2, 4 and 8 hours post dose.
Blood samples were centrifuged to obtain plasma, which was transferred to a separate container and frozen at −20° C.
The supernatants were collected for analysis. The standard samples were prepared similarly, after spiking blank rat plasma samples to study compound concentrations at 1, 2, 5, 10, 20, 50, 100, 200, 500 and 1000 ng/mL. In addition, extra samples were prepared from 0-1 hour i.v. samples by diluting 1/20 with 50% aqueous acetonitrile to avoid exceeding the linear range of the analytical method.
A Waters Acquity liquid ultra-performance chromatographic system (Waters Corp., Milford, Mass., USA) with autosampler, vacuum degasser and column oven was used. The analytical column used for all compounds was a Waters BEH C18, (2.1×50 mm, 1.7 μm, Waters Corp, Milford, Mass., USA) together with a 0.2 μm on-line filter before the column. The eluents were 0.1% acetic acid (A, pH 3.2) and methanol (B). Gradient elution from 5% to 60% B in two minutes was employed, followed by one minute gradient to 90% B and column equilibration. The flow rate was 0.5 mL/min and the column oven temperature was 35° C. The flow was directed to the MS via Water Acquity photo-diode-array (PDA) detector. LC/TOF-MS data were recorded with a Micromass LCT Premier XE time-of-flight (TOF) mass spectrometer (Micromass Ltd., Manchester, England) equipped with a LockSpray electrospray ionization source. A positive ionization mode of electrospray was used for all compounds. The mass range of m/z 100-900 was acquired. The W-option of the reflector was used, and the DRE (dynamic range enhancement) option was set to on. The mass spectrometer and HPLC system were operated under Micromass MassLynx 4.1 software. […] Masslynx 4.1 software was used for controlling the instrumentation and for data processing.
The pharmacokinetic parameters for the test compounds were calculated by WinNonlin Pro (Pharsight Corp, CA) using standard noncompartmental methods. The elimination phase half-life (t1/2) was calculated by least-squares regression analysis of the terminal linear part of the log concentration—time curve. The area under the plasma concentration—time curve (AUC) was determined by use of the linear trapezoidal rule up to the last measurable concentration and thereafter by extrapolation of the terminal elimination phase to infinity.

Data set [2] can be described thus: Human liver microsomal stability assay. To be noted: both sexes, pH 7.4; pooled human liver microsomes 0.5 mg/mL, 3 μM compound, NADPH, 45 minute incubation. It is filed as in vitro ADME. The method, then: (§1) Initial screening of candidate compounds was performed using in vitro assays to determine potency, metabolic stability and solubility in biologically relevant fluids. Potency was assessed using a viability assay based on the survival of the J774 macrophage cell line. […] Like osteoclasts, J774 macrophages are dependent on continued NFκB activation for survival, thereby providing a valuable screen for compounds with anti-inflammatory activity. Metabolic stability was measured by determining the rate of disappearance of compound in the presence of human liver microsomal preparations, as quantified by LC-MS/MS. Solubility was measured by equilibration of the compound in fasted state simulated intestinal fluid (FaSSIF) and quantified by HPLC.
Metabolic stability of APSAC derivatives was measured by determination of the rate of compound disappearance when incubated in the presence of human liver microsomes. Liver microsomes are prepared from the endoplasmic reticulum of hepatocytes and are the primary source of the most important enzymes (cytochrome P450) involved in drug metabolism. Study of drug stability in the presence of liver microsomes is accepted as a valuable model permitting rapid prediction of in vivo drug stability.
Human liver microsomes were obtained from a commercial source. Test compounds (3 μM) were incubated with pooled liver microsomes (male and female). Samples were incubated for a 45 minute period and removed at 5 time points and test compounds were analysed by LC-MS/MS.
The final incubation volume was 25 μL. A control incubation was included for each compound tested, where 0.1 M phosphate buffer pH 7.4 was added instead of NADPH. The control compounds testosterone and 7-hydroxycoumarin were included in each experiment and all incubations were performed singularly for each compound.
Each compound was incubated for 0, 5, 15, 30, and 45 minutes. The control (minus NADPH) was incubated for 45 minutes only. […] The incubation plates were centrifuged at 2500 rpm for 20 minutes at 4° C. to precipitate the protein.
Following protein precipitation, the sample supernatants were combined in cassettes of up to 4 compounds and analysed using standard LC-MS/MS conditions.
From a plot of the natural logarithm of the peak area ratio (i.e., the ratio of compound peak area:internal standard peak area) against time, the gradient of the line was determined. Subsequently, half-life and intrinsic clearance were calculated using the equations below: Eliminated rate constant (k)=(−gradient). […] Pharmacokinetics Studies
On the technique in general: Microsomes from liver hold many membrane-bound enzymes, among them those of drug oxidation.

Data set [3] can be described thus: Thermodynamic aqueous solubility in fasted state simulated intestinal fluid (FaSSIF). It is filed as physicochemical. To be noted: pH 6.5, thermodynamic from solid, equilibrated at 25° C. for 24 hours, HPLC. The procedure: as §1
Thermodynamic aqueous solubility was measured by equilibration of a number of APSAC compounds, in the solid state, with fasted state simulated intestinal fluid (FaSSIF) and quantified by HPLC. Measurement of solubility in FaSSIF provides a valuable model for the prediction of drug dissolution following oral administration.
The pH was adjusted to 6.5 using 1 M NaOH solution.
0.6 mL of a solution containing 100 mg/mL lecithin in methylene chloride was added. The methylene chloride was eliminated under vacuum at about 40° C. The vacuum was drawn for 15 minutes at 250 mbar, followed by 15 minutes at 100 mbar. […] After cooling to room temperature, the solution was then adjusted to 100 mL with blank FaSSIF.
The suspension was equilibrated at 25° C. for 24 hours, and then the pH was measured. The suspension was then filtered through a glass fibre C filter into a 96-well plate. The filtrate was then diluted by a factor of 100. Quantification was made by HPLC with reference to a standard solution of compound at approximately 0.1 mg/mL in DMSO. Different volumes of the standard, diluted and undiluted sample solutions were injected. […] Analysis was performed on an Agilent HP1100 series system equipped with a diode array detector and using ChemStation software vB.02.01-SR1.

For orientation: half-life means how long it takes for the measured level to halve. The bioavailability is the share of a dose that reaches the circulation, judged against a reference dose that is usually intravenous. Lower therefore signals little systemic uptake. Broadly, the solubility is the concentration that dissolves in the medium under given conditions. `O=S(=O)(N[C@H]1CC[C@@H](CO)C1)c1ccc(-c2ccc(F)cc2F)cc1` [ABD773, 2′,4′-Difluoro-N-((1 S,3R)-3-(hydroxymethyl)cyclopentyl)biphenyl-4-sulfonamide]: the results for the half-life in data set [1] (iv) and in data set [1] (po) were 48.6 min and 190 min, respectively. The molecule also had a bioavailability in data set [1] of 13%. The figures for the AUC in data set [1] (i.v.) and in data set [1] (p.o.) were 11900 ng/mL/min and 1500 ng/mL/min, respectively. The half-life at 3 µM in data set [2] is 54 min. The concentration in solution in data set [3] (solubility at 24 h) was 890 µg/mL (≈ 2420 µM).
Consider `O=S(=O)(N[C@H]1CC[C@@H](CO)CC1)c1ccc(-c2ccc(F)cc2F)cc1` [ABD781, 2′,4′-Difluoro-N-(cis-4-(hydroxymethyl)cyclohexyl)biphenyl-4-sulfonamide], for which the half-life in data set [1] (iv) was 52.2 min; in data set [1] (po), 197 min. Besides, the bioavailability in data set [1] was determined as 43%. Besides, the values for the AUC in data set [1] (i.v.) and in data set [1] (p.o.) were 22400 ng/mL/min and 9600 ng/mL/min, respectively. Besides, the half-life at 3 µM in data set [2] amounted to 41 min. In data set [3], this molecule registered a solubility at 24 h of 590 µg/mL (≈ 1550 µM).
